Measured values reported in PMC5391171 (Journal of molecular and cellular cardiology, 2016).

Legend:
[1] = molecular target: cChimera (cNTnC-cTnI [136–163] chimera) (Homo sapiens, UniProt P19429+P63316, C35S/C84S); assay: NMR titration; assay type: binding
[2] = tested on: cardiac isoform of troponin; conditions: cited from earlier work
[3] = titration monitored by chemical shift changes

| Compound | Kd [1] [µM] | Binding to cChimera [1, 3] | also measured |
| --- | --- | --- | --- |
| O=C(O)c1ccccc1Nc1ccccc1 [NSC215211] | 800 |  |  |
| C#Cc1cnc2nc(O)n(C(CC)CC)c2n1 [tirasemtiv] |  |  | activity towards the cardiac isoform of troponin [2]: no activity |
| c1ccc(CNCc2ccccc2)cc1 [dibenzylamine] |  |  | Binding to cChimera ([1]; addition of a methylene carbon relative to benzylaniline): completely abolished binding |
| Clc1cccc(Nc2ccccc2)c1 [3-chlorodiphenylamine] | 10 |  |  |
| O=[N+]([O-])c1cccc(Cc2ccc(Cc3cccc([N+](=O)[O-])c3)cc2)c1 [NSC89784] |  | NSC89784 Weak binding (very small chemical shift changes that could not be fit to a saturating curve, indicating a KD > 2 mM) |  |
| Cc1ccc(S(=O)(=O)Nc2ccc(Nc3ccccc3)cc2)cc1 [NSC41053] |  | NSC41053 Weak binding (very small chemical shift changes that could not be fit to a saturating curve, indicating a KD > 2 mM) |  |
